# Assay results: patent US10351500B2, “Method of using of dihydro-resveratrol or its stilbenoid derivatives and/or chemical variants as antimicrobial agents” (Hong Kong Baptist University, priority 2015, dated 2019)
# Key:
# [1] = tested on: LTC-14 cells (pancreatic stellate cells); assay: Western blotting of α-SMA and FN1 in TGF-β-challenged LTC-14 PSCs; format: cell-based, rat
# Experimental: LTC-14 cells were cultured at 37° C. under a humidified condition of 95% air and 5% CO2 in IMDM supplemented with 10% fetal bovine serum (FBS). Cells used in all the experiment were among passages 9 to 25. LTC-14 cells were seeded at a density of 1×10^5/well in a 12-well plate, and incubated with recombinant TGF-β at 5 ng/mL with dihydro-resveratrol at 0, 1, 5, 10 and 20 μg/mL in IMDM supplemented with 0.2% FBS for 24 hours. Cells were then harvested for protein extraction and Western blotting analysis or immunofluorescent staining.
# Total proteins of the LTC-14 cells are extracted using RIPA lysis buffers containing protease inhibitors. Cell lysates were loaded and separated by SDS-polyacrylaminde gel electrophoresis. After wet electroblotting, proteins were transferred onto PVDF membranes (Bio-rad), blocked with 5% non-fat milk, probed with antibodies and visualized by utilization of an ECL kit (GE Healthcare).
# Control was not treated with Resv or any stilbenoids. Total proteins were extracted and analyzed using Western blotting.
# Total proteins were extracted and analyzed using Western blotting.
# [2] = ABTS radical decolorization assay (antioxidant capacity); format: biochemical; details: 15 min, 734 nm
# [3] = tested on: skin color at the arms of individual human subjects; assay: skin colorimeter ITA° measurement after topical stilbenoid solution; format: in vivo
# Experimental: To determine the skin color of the individual human subjects, the initial skin conditions at the arms of the individuals are tested by the skin colorimeter MPA 5 on day 0. The individual typology angle (ITA°) is calculated by the colorimeter based on the luminance (L*) and yellow-blue component (b*) values. The greater the ITA° value, the greater the skin whiteness [S. Del Bino and F. Bernerd. Variations in skin colour and the biological consequences of ultraviolet radiation exposure. British Journal of Dermatology 2013; 169 (Suppl. 3), 33-40]. In fact, skin colors are classified into 6 major divisions: very light, light, intermediate, tan, brown and dark as listed in Table 4. Two areas (2 cm×2 cm each) are selected as treated areas whereas regions surrounding the treated areas on the arms are regarded as control areas. A volume of 200 μL of the testing stilbenoids (2% by weight dissolved in ethanol) is applied to the designated area twice a day, day and night. At the end of the first week (day 7), individuals are tested with the skin colorimeter for recording the data about using the stilbenoids for 7 days. Again, at the end of the second week (day 14), individuals are tested with the skin colorimeter for recording the data about using the stilbenoids for 14 days.
# [4] = tested on: human embryonic kidney HEK293 cell line; assay: MTT cell viability assay, HEK293; format: cell-based
# Experimental: (§1) The human colorectal carcinoma HCT-116 cell line, human pancreatic ductal adenocarcinoma PANC-1 cell line, human melanoma A375 cell line and human embryonic kidney HEK293 cell line were purchased from the American Type Culture Collection. Cells were cultured in high glucose DMEM growth medium supplemented with 10% fetal bovine serum, penicillin and streptomycin (100 U) in a humidified atmosphere of 5% CO2, 95% air at 37° C. Upon the addition of dihydro-resveratrol (D-res) to the HCT-116, PANC-1, A375 or HEK293 cells seeded at a density of 8000 cells per well in a 96-well plate format, the viability of the testing cells was determined 24 h post treatment using the (3-(4,5-dimethylthiazol-2-yl)-2,5-diphenyltetrazolium bromide) tetrazolium (MTT) reduction assay and expressed as growth inhibition of 50% (GI50, Table 6).
# [5] = tested on: human pancreatic ductal adenocarcinoma PANC-1 cell line; assay: MTT cell viability assay, PANC-1; format: cell-based; details: PANC-1 pancreatic ductal adenocarcinoma, 24 h
# Experimental: as §1
# [6] = tested on: A375 human melanoma cells; assay: cell migration assay, A375; format: cell-based; details: A375, 25 μM, 24-h treatment
# [7] = tested on: Trichophyton mentagrophytes; assay: anti-fungal growth inhibition, T. mentagrophytes; format: cell-based; details: Trichophyton mentagrophytes, 168 h
# [8] = tested on: Streptococcus sobrinus; assay: anti-bacterial growth inhibition, S. sobrinus; format: cell-based; details: Streptococcus sobrinus, 10 h
# [9] = read-out: Inhibition rate (25 μM)
# [10] = read-out: Inhibition rate (50 μM)
# [11] = read-out: Inhibition rate (100 μM)
smiles,measurement,setting,value
"Oc1ccc(CCc2cc(O)cc(O)c2)cc1 [Dihydro-resveratrol, trans-3,5,4′-trihydroxybibenzyl]",expression levels of α-SMA and FN1,[1]; rat PSCs upon challenge of TGF-β,significantly attenuate
same,anti-fibrotic effect in PSCs among the testing stilbenoids,"[1]; rat PSCs, TGF-β",most potent anti-fibrotic effect
same,"Trolox equivalent (mg), antioxidant capacity",[2],4969.611 mg
same,whitening effect on skin,"[3]; 2% by weight in ethanol, topical twice a day, most individuals",Overt whitening effect
same,ITA° measurement,"[3]; Individual No. 1, day 7, 2% solution topical",49.0 ± 1.732 °
same,ITA° measurement,"[3]; Individual No. 1, day 14, 2% solution topical",52.4 ± 1.166 °
same,ITA° measurement,"[3]; Individual No. 2, day 7, 2% solution topical",41.1 ± 3.391 °
same,ITA° measurement,"[3]; Individual No. 2, day 14, 2% solution topical",49.8 ± 4.630 °
same,ITA° measurement,"[3]; Individual No. 3, day 7, 2% solution topical",35.0 ± 1.000 °
same,ITA° measurement,"[3]; Individual No. 3, day 14, 2% solution topical",33.8 ± 0.837 °
same,ITA° measurement,"[3]; Individual No. 4, day 7, 2% solution topical",26.8 ± 2.371 °
same,ITA° measurement,"[3]; Individual No. 4, day 14, 2% solution topical",35.2 ± 2.103 °
same,ITA° measurement,"[3]; Individual No. 5, day 7, 2% solution topical",25.6 ± 1.817 °
same,ITA° measurement,"[3]; Individual No. 5, day 14, 2% solution topical",27.8 ± 1.934 °
same,ITA° measurement,"[3]; Individual No. 6, day 7, 2% solution topical",26.4 ± 2.649 °
same,ITA° measurement,"[3]; Individual No. 6, day 14, 2% solution topical",34.6 ± 0.927 °
same,ITA° measurement,"[3]; Individual No. 7, day 7, 2% solution topical",21.2 ± 0.837 °
same,ITA° measurement,"[3]; Individual No. 7, day 14, 2% solution topical",23.8 ± 2.634 °
same,ITA° measurement,"[3]; Individual No. 8, day 7, 2% solution topical",14.0 ± 2.345 °
same,ITA° measurement,"[3]; Individual No. 8, day 14, 2% solution topical",16.2 ± 1.483 °
same,ITA° measurement,"[3]; Individual No. 9, day 7, 2% solution topical",−5.2 ± 0.837 °
same,ITA° measurement,"[3]; Individual No. 9, day 14, 2% solution topical",−2.2 ± 0.447 °
same,GI50,"[4]; Homo sapiens, HEK293 embryonic kidney (serves as normal control), 24 h, MTT",244.1 ± 0.96 µM
same,selectivity implied by GI50 values (carcinoma cells vs HEK293),[4]; Table 6,selectivity towards carcinoma cells
same,GI50,[5],116 ± 3.09 µM
same,migratory ability,[6],significant reduction in the migratory ability
same,inhibition at 25 µM,[7]; [9],4.52%
same,inhibition at 50 µM,[7]; [10],15.3%
same,inhibition at 100 µM,[7]; [11],30.8%
same,inhibition at 25 µM,[8]; [9],10.7%
same,inhibition at 50 µM,[8]; [10],8.18%
same,inhibition at 100 µM,[8]; [11],1.49%
